Experimental data from ChEMBL document CHEMBL5104136, “Discovery of benzodioxane analogues as lead candidates of AIMP2-DX2 inhibitors” (Bioorg Med Chem Lett, 2022).

Key:
[1] = Cytotoxicity against human WI-26 cells expressing low levels of AIMP2-DX2 assessed as reduction in cell viability incubated for 96 hrs; type: toxicity, cell-based; conditions: wi-26, 96 h
A549 [2] = assay: Cytotoxicity against human A549 cells expressing high levels of AIMP2-DX2 assessed as reduction in cell viability incubated for 96 hrs; type: functional, cell-based; conditions: A549, 96 h
NCI-H460 = assay: Cytotoxicity against human NCI-H460 cells expressing median levels of AIMP2-DX2 assessed as reduction in cell viability incubated for 96 hrs; type: functional, cell-based; conditions: NCI-H460, 96 h
Cytochrome P450 2C19 = Cytochrome P450 2C19 (Homo sapiens, UniProt P33261); assay: Inhibition of CYP2C19 (unknown origin); type: ADME
Chain of Cytochrome P450 2C19 (P33261 whole entry): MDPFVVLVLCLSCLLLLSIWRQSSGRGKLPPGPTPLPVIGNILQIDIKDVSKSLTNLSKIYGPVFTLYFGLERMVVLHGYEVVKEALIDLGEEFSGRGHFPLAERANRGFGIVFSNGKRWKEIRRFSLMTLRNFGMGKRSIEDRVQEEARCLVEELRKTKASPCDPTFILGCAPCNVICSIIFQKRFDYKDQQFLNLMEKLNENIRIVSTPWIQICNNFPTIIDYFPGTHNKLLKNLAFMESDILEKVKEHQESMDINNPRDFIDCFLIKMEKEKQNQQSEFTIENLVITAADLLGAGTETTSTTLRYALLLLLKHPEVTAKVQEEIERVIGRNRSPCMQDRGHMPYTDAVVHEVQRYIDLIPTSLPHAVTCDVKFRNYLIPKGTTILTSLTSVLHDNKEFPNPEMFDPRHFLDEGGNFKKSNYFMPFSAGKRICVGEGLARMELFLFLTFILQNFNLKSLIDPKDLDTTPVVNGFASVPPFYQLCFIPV

[3] = Plasma stability in mouse assessed as compound remaining measured after 2 hrs; type: ADME, cell-free; conditions: read-out: Stability
[4] = Metabolic stability in mouse assessed as half life; type: ADME
[5] = Plasma stability in human assessed as compound remaining measured after 2 hrs; type: ADME, cell-free; conditions: read-out: Stability
Cytochrome P450 1A2 = target: T1, Cytochrome P450 1A2 (Homo sapiens, UniProt P05177); assay: Inhibition of CYP1A2 (unknown origin); type: ADME
T1 sequence (P05177 whole entry): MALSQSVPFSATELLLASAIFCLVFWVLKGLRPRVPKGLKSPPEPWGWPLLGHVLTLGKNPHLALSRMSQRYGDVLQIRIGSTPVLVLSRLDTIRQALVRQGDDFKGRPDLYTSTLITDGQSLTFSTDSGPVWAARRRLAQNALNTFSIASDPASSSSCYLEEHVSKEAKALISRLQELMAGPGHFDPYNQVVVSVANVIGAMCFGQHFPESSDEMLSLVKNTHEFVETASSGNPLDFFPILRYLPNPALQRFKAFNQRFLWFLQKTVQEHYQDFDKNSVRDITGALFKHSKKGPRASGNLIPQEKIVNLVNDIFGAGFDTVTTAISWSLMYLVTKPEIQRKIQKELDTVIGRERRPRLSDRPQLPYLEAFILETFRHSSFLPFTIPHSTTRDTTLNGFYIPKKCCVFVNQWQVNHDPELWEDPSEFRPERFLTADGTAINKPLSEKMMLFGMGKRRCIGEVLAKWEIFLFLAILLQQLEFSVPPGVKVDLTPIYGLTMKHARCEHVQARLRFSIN

Cytochrome P450 2C9 = Cytochrome P450 2C9 (Homo sapiens, UniProt P11712); assay: Inhibition of CYP2C9 (unknown origin); type: ADME
Chain of Cytochrome P450 2C9 (P11712 whole entry): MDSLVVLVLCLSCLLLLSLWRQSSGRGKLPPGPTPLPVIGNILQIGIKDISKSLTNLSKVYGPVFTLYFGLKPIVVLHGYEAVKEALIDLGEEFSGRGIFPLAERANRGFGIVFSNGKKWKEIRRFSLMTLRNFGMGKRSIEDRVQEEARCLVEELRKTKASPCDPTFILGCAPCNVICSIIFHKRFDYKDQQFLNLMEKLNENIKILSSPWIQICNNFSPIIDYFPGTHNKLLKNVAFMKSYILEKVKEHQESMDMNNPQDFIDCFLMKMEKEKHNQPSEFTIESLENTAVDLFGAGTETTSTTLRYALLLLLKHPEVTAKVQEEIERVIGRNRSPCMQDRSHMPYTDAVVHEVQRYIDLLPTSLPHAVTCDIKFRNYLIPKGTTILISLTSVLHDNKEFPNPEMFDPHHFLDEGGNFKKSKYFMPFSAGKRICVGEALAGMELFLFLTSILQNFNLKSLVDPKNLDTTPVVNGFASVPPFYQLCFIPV

Cytochrome P450 3A4 = Cytochrome P450 3A4 (Homo sapiens, UniProt P08684); assay: Inhibition of CYP3A4 (unknown origin); type: ADME
Chain of Cytochrome P450 3A4 (P08684 whole entry): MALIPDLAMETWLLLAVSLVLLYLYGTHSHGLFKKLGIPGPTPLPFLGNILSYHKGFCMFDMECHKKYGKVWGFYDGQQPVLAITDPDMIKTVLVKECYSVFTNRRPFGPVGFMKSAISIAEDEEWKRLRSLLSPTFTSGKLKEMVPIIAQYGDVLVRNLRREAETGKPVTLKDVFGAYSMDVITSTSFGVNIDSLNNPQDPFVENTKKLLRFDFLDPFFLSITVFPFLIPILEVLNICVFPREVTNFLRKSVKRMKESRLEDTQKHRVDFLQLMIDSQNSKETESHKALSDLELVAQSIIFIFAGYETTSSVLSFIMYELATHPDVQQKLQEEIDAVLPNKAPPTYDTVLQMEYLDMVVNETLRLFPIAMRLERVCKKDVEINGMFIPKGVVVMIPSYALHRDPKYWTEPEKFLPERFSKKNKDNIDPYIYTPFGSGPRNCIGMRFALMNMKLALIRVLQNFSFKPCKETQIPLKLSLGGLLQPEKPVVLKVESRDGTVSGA

[6] = Metabolic stability in human assessed as half life; type: ADME
Cytochrome P450 2D6 = Cytochrome P450 2D6 (Homo sapiens, UniProt P10635); assay: Inhibition of CYP2D6 (unknown origin); type: ADME
Chain of Cytochrome P450 2D6 (P10635 whole entry): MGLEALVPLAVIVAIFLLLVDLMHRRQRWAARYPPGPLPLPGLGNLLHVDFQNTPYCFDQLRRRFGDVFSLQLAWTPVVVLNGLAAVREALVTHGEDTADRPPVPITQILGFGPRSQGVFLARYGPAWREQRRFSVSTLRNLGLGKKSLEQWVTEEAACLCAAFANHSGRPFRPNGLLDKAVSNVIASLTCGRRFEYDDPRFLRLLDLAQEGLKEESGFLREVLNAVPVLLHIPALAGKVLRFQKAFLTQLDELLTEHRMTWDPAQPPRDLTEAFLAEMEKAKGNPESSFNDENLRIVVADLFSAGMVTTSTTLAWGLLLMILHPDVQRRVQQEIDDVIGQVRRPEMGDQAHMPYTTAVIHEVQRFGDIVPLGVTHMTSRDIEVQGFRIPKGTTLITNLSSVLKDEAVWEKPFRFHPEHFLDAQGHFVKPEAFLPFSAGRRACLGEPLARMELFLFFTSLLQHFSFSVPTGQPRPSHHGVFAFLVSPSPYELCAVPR

[7] = target: T2, Aminoacyl tRNA synthase complex-interacting multifunctional protein 2 (Homo sapiens, UniProt Q13155); assay: Inhibition of AIMP2-DX2 in human A549 cells by nanoluciferase based assay; type: cell-based
T2 sequence (Q13155 whole entry, looked up, one chain of several): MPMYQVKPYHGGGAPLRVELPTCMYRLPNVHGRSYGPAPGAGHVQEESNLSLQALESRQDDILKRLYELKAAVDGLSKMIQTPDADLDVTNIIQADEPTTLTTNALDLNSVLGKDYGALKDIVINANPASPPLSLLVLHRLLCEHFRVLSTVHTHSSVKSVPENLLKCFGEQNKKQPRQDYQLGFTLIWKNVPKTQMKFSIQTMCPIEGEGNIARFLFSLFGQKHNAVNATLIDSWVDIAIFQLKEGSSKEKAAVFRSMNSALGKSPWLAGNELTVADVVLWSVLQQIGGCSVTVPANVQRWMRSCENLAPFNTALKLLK

[8] = target: T2, Aminoacyl tRNA synthase complex-interacting multifunctional protein 2; assay: Inhibition of AIMP2-DX2 in human A549 cells by luciferase assay; type: cell-based
A549 [9] = assay: Inhibition of cell proliferation in human A549 cells; type: functional, cell-based

Row | SMILES | IC50 (Cytochrome P450 2C19) [nM] | remaining at 2 h [3] [%] | half-life [4] [min] | remaining at 2 h [5] [%] | IC50 (Cytochrome P450 1A2) [nM] | IC50 (Cytochrome P450 2C9) [µM] | IC50 (Cytochrome P450 3A4) [µM] | half-life [6] [min] | IC50 (Cytochrome P450 2D6) [µM] | IC50 [7] [µM] | IC50 [8] [µM] | IC50 (A549 [9]) [µM] | Activity [1] | EC50 (A549 [2]) [nM] | EC50 (NCI-H460) [nM]
1 | Cc1cc2occ(CC(=O)NCC3COc4ccccc4O3)c2cc1C (stereo unspecified) |  |  |  |  |  |  |  |  |  |  |  |  | Non-Toxic | 1230 | 370
2 | Cc1cc(O)ccc1CC(=O)NCC1COc2ccccc2O1 (stereo unspecified) |  |  |  |  |  |  |  |  |  |  |  |  | Non-Toxic | 1100 | 458
3 | O=C(Cc1ccc(-c2ccccc2)cc1)NCC1COc2ccccc2O1 (stereo unspecified) | 228 | 108 | 1.6 | 98.7 | 1640 | 0.559 | > 50 | < 2.5 | 12.3 |  |  |  | Non-Toxic | 690 | 150

Continued, in another order:

Row | IC50 (Cytochrome P450 2C19) [nM] | remaining at 2 h [3] [%] | half-life [4] [min] | remaining at 2 h [5] [%] | IC50 (Cytochrome P450 1A2) [nM] | IC50 (Cytochrome P450 2C9) [µM] | IC50 (Cytochrome P450 3A4) [µM] | half-life [6] [min] | IC50 (Cytochrome P450 2D6) [µM] | IC50 [7] [µM] | IC50 [8] [µM] | IC50 (A549 [9]) [µM] | SMILES | Activity [1] | EC50 (A549 [2]) [nM] | EC50 (NCI-H460) [nM]
4 | 461 | 94.2 | 0.7 | 97 | 417 | 3.46 | 36.2 | 2.7 | 29.2 |  |  |  | CCc1ccc(CC(=O)NCC2COc3ccccc3O2)cc1 (stereo unspecified) | Non-Toxic | 688 | 204
5 | > 50000 | 47.3 | 30.9 | 69.8 | > 50000 | 49.5 | > 50 | 49.1 | > 50 | 10.1 | 7.38 |  | O=C(O)c1cccc(-c2ccc(/C=N/NC(=O)C3COc4ccccc4O3)o2)c1 (stereo unspecified) | Non-Toxic | 12000 | 2980
6 |  |  |  |  |  |  |  |  |  |  | 5.68 |  | Cc1ccc2c(CC(=O)NCC3COc4ccccc4O3)coc2c1 (stereo unspecified) |  |  | 
7 |  |  |  |  |  |  |  |  |  |  |  | 40.1 | Cc1ccc(S(=O)(=O)N[C@@H](CC(C)C)C(=O)N2CCCOCCOCCOCC2)cc1 |  |  | 
